Results published in ChEMBL document CHEMBL5696442, “Discovery of type II inhibitors of TGFβ-activated kinase 1 (TAK1) and mitogen-activated protein kinase kinase kinase kinase 2 (MAP4K2)” (J Med Chem, 2015).
Activity calls are given as the source filed them. No cut-off for these calls is given here.

What was measured:
[1] = target: Mitogen-activated protein kinase kinase kinase 1 (Homo sapiens) (UniProt Q13233); test: Inhibition of MAP3K1 Lys2 labeling site in human Huh-7 cell lysate at 1 uM by KiNativ Profiling analysis relative to control; format: subcellular
[2] = target: T1, Serine/threonine-protein kinase 3 (Homo sapiens) (UniProt Q13188); test: Inhibition of MST2 Lys2 labeling site harbouring DIKAGNILLNTEGHAK in human Huh-7 cell lysate at 1 uM by KiNativ Profiling analysis relative to control; format: subcellular
T1 sequence (whole entry): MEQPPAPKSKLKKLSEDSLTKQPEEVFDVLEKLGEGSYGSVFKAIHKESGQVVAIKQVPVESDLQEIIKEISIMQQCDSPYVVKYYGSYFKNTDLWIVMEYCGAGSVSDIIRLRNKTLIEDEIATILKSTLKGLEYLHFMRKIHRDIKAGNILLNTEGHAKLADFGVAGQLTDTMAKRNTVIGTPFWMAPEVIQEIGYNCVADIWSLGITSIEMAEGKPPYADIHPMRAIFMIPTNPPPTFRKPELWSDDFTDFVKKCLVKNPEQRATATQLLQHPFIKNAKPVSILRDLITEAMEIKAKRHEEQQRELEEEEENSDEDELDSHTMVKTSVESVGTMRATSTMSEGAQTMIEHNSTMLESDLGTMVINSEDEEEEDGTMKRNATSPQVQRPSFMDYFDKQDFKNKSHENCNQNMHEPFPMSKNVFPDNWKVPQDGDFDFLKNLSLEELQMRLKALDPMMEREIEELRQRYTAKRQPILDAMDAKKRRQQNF

[3] = target: T2, Serine/threonine-protein kinase TAO3 (Homo sapiens) (UniProt Q9H2K8); test: Inhibition of TAO3 Lys2 labeling site in human Huh-7 cell lysate at 1 uM by KiNativ Profiling analysis relative to control; format: subcellular
T2 sequence (whole entry): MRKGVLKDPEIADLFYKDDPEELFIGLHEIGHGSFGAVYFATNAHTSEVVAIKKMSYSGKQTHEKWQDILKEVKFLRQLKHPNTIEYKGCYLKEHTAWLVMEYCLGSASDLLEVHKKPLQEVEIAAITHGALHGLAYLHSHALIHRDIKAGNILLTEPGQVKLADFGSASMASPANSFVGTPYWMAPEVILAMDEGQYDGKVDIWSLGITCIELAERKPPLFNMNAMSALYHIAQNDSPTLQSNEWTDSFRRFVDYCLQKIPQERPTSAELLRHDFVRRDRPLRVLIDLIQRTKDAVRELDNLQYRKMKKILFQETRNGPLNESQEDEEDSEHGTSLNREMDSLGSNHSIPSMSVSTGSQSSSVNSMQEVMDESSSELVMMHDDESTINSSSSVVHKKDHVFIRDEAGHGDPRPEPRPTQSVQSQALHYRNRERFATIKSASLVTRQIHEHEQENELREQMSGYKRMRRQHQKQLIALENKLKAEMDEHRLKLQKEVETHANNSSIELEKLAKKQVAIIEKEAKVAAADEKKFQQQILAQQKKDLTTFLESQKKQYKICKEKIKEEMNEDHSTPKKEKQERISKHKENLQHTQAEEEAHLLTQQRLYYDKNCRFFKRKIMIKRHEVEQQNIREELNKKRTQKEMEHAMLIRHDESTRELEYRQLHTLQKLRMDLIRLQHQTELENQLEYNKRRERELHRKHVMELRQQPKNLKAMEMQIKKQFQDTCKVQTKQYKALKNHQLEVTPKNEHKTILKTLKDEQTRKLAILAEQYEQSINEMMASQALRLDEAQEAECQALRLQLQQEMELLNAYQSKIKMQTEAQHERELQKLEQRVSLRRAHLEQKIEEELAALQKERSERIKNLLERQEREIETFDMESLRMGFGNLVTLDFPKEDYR

[4] = Inhibition of KHS1 Lys2 labeling site harbouring DIKGANILLTDHGDVK in human Huh-7 cells at 1 uM by KiNativ Profiling analysis relative to control; details: condition cancer
[5] = target: Peripheral plasma membrane protein CASK (Homo sapiens) (UniProt O14936); test: Inhibition of CASK Lys1 labeling site in human Huh-7 cell lysate at 1 uM by KiNativ Profiling analysis relative to control
[6] = target: Receptor tyrosine-protein kinase erbB-4 (Homo sapiens) (UniProt Q15303); test: Inhibition of ERBB4 (unknown origin) at 1 uM by Ambit Kinomescan binding assay relative to control
[7] = target: Glycogen synthase kinase-3 beta (Homo sapiens) (UniProt P49841); test: Inhibition of GSK3B Lys2 labeling site in human A-375 cells at 5 uM by KiNativ Profiling analysis relative to control; format: cell-based
[8] = target: Cyclin-dependent kinase 17 (Homo sapiens) (UniProt Q00537); test: Inhibition of PCTAIRE2 Lys1 labeling site harbouring SKLTENLVALKEIRLEHEEGAPCTAIR in human A-375 cells at 0.05 uM by KiNativ Profiling analysis relative to control; format: cell-based
[9] = target: Ribosomal protein S6 kinase alpha-1 (Homo sapiens) (UniProt Q15418); test: Inhibition of RSK1 domain2 Lys2 labeling site in human A-375 cells at 0.05 uM by KiNativ Profiling analysis relative to control; format: cell-based
[10] = target: TRAF2 and NCK-interacting protein kinase (Homo sapiens) (UniProt Q9UKE5); test: Inhibition of ZC2 Lys2 labeling site in human A-375 cells at 5 uM by KiNativ Profiling analysis relative to control; format: cell-based
RAW = test: Inhibition of LPS induced p38 phosphorylation in mouse RAW cells preincubated for 1 hr followed by LPS stimulation and measured after 30 mins by Western blot analysis; format: functional, cell-based; details: dose 0.01-10 µM
[11] = target: Serine/threonine-protein kinase 16 (Homo sapiens) (UniProt O75716); test: Inhibition of STK16 (unknown origin) at 10 uM by Ambit Kinomescan binding assay
[12] = target: Tyrosine-protein kinase JAK1 (Homo sapiens) (UniProt P23458); test: Inhibition of JAK1 domain2 Lys1 labeling site in human A-375 cells at 0.5 uM by KiNativ Profiling analysis relative to control; format: cell-based
[13] = target: T3, Aurora kinase A (Homo sapiens) (UniProt O14965); test: Inhibition of AurA K2 labeling site harbouring DIKPENLLLGSAGELK in human Huh-7 cells at 1 uM by KiNativ Profiling analysis relative to control; format: cell-based
T3 sequence (whole entry): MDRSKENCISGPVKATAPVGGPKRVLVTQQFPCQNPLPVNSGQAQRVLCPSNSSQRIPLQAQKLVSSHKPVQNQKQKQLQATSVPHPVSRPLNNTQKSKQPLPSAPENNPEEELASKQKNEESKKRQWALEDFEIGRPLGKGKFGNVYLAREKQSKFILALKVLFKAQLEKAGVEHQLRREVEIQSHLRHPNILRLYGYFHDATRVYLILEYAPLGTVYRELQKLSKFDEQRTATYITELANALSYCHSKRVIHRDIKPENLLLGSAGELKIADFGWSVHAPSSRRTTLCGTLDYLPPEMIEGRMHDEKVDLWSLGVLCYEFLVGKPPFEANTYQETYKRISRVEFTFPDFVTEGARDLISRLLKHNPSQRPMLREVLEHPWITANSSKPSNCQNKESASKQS

Ribosomal protein S6 kinase alpha-1 (Homo sapiens), sequence (Q15418 whole entry, the tested form may be a part): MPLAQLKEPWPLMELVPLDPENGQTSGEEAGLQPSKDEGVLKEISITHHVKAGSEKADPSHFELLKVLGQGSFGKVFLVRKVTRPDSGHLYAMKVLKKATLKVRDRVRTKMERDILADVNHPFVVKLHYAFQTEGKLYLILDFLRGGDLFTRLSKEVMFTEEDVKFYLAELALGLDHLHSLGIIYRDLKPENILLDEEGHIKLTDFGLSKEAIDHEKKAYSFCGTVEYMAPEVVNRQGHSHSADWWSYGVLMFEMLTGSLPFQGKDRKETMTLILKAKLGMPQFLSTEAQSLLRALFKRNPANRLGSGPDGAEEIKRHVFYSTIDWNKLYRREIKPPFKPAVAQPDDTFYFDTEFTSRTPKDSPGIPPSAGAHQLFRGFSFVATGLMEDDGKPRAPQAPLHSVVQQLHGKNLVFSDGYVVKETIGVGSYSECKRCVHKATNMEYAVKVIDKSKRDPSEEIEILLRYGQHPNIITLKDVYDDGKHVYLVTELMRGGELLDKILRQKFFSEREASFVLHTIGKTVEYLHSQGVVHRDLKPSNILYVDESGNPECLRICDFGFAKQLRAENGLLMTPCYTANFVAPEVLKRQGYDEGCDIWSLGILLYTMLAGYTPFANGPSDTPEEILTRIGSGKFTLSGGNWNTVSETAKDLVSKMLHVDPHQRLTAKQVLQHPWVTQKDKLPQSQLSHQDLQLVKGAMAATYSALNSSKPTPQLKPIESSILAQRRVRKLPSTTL
Peripheral plasma membrane protein CASK (Homo sapiens), sequence (O14936 whole entry, looked up): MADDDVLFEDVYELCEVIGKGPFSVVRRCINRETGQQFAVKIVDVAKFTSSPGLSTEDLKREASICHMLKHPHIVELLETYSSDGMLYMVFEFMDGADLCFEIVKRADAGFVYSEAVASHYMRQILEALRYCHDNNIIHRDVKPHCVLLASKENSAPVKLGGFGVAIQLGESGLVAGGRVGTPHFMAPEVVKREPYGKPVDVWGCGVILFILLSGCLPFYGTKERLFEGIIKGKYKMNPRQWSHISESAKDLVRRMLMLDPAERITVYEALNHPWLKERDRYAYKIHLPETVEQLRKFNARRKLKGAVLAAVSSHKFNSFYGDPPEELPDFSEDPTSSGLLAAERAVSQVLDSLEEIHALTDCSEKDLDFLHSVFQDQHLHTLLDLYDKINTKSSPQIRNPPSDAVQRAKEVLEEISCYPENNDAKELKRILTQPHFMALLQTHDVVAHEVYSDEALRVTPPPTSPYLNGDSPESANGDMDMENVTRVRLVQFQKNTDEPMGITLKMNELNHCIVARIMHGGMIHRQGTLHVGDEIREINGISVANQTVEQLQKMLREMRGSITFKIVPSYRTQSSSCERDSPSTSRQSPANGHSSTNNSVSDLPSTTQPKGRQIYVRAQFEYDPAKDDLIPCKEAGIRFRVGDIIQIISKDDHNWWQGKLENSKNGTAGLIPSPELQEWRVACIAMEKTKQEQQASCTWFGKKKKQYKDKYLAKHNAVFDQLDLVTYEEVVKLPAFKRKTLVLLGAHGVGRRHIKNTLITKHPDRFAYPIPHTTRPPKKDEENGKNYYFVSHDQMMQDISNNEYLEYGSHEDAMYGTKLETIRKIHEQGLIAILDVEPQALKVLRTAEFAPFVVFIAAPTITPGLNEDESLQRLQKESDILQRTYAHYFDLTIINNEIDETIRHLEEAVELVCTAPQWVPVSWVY
TRAF2 and NCK-interacting protein kinase (Homo sapiens), sequence (Q9UKE5 whole entry, looked up): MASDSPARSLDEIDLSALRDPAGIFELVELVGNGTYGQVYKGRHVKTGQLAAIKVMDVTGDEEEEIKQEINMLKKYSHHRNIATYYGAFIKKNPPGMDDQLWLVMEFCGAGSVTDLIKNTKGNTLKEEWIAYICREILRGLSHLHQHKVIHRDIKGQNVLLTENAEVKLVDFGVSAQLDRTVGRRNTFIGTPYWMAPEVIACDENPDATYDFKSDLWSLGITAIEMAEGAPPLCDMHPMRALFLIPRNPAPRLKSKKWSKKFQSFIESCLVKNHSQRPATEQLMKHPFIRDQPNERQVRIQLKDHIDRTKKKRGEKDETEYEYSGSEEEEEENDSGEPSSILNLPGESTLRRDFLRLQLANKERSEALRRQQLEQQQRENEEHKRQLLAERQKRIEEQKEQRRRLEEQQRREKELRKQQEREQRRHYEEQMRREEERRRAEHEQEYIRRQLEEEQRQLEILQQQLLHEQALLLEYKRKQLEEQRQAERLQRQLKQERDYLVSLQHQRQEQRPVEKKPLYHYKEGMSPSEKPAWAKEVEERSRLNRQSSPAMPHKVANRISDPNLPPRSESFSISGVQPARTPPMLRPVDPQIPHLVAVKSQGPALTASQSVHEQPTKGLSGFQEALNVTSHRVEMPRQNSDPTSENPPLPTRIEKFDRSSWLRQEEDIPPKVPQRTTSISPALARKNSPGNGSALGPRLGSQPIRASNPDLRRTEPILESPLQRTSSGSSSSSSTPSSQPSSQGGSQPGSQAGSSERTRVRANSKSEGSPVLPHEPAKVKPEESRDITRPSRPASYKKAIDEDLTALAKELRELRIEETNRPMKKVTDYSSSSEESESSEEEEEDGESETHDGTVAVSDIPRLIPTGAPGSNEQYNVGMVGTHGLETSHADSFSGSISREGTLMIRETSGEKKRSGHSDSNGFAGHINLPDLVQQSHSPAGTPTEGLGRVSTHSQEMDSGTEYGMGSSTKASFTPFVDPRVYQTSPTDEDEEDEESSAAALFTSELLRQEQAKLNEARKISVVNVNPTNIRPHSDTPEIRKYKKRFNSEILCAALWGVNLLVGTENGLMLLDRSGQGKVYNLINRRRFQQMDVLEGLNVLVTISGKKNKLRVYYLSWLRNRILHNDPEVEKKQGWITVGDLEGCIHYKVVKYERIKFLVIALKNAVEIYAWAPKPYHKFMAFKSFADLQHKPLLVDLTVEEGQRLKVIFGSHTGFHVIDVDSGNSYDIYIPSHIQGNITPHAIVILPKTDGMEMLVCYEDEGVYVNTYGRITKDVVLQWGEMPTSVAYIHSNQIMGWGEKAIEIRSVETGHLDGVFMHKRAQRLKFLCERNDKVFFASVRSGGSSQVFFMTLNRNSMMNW
Cyclin-dependent kinase 17 (Homo sapiens), sequence (Q00537 whole entry, looked up, the tested form may be a part): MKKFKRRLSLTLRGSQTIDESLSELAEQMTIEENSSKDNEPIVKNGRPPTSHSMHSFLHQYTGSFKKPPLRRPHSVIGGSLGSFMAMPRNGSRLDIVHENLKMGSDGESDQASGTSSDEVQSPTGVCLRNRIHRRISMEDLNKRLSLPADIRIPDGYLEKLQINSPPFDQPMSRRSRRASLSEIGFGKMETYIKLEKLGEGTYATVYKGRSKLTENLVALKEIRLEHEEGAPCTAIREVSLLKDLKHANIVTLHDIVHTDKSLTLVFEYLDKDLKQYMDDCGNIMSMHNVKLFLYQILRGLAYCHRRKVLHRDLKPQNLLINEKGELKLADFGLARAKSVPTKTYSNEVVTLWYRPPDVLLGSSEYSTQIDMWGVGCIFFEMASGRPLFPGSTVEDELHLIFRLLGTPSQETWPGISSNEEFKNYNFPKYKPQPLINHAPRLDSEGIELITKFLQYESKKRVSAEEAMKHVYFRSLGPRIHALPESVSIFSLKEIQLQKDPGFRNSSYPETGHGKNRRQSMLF
Tyrosine-protein kinase JAK1 (Homo sapiens), sequence (P23458 whole entry, the tested form may be a part): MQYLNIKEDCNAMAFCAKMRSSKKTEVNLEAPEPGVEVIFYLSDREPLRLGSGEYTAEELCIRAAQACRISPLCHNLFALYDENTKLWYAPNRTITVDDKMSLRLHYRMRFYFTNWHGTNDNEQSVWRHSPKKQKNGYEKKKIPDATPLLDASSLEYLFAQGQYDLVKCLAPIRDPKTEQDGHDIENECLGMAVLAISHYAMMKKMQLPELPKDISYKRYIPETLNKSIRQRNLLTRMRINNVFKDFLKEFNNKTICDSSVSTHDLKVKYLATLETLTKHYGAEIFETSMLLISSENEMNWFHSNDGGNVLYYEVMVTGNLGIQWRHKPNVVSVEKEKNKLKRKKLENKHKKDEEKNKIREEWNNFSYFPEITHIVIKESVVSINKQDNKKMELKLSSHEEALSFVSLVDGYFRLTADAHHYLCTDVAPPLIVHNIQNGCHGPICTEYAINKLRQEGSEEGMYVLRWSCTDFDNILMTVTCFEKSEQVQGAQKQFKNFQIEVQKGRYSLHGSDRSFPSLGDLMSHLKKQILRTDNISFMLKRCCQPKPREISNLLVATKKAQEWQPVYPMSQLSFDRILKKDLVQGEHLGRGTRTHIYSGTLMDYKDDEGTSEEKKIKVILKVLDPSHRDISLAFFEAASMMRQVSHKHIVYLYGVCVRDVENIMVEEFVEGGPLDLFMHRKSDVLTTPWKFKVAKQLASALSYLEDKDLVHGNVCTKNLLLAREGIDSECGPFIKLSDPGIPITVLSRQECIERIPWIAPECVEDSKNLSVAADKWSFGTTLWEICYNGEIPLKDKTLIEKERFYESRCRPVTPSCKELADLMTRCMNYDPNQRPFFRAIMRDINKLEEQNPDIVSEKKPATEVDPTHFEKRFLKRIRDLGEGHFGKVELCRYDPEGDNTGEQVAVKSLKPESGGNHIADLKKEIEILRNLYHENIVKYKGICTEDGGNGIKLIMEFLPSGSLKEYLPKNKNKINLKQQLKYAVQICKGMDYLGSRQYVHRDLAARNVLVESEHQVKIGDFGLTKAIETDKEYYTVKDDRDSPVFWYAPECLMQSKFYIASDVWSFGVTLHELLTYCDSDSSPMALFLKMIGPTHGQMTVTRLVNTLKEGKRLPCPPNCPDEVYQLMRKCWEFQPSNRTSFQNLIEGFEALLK
Serine/threonine-protein kinase 16 (Homo sapiens), sequence (O75716 whole entry, the tested form may be a part): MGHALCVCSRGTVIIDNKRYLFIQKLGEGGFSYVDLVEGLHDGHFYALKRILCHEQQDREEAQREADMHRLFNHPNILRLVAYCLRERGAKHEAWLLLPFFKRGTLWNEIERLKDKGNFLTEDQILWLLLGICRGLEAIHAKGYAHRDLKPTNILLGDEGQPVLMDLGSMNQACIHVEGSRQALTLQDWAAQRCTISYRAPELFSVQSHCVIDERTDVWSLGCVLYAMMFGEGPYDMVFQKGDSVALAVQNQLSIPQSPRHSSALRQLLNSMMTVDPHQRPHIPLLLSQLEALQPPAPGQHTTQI

Work on `CNc1cc(Oc2cc(C(=O)Nc3cc(N4CCN(C)CC4)cc(C(F)(F)F)c3)ccc2C)ncn1` yielded an inhibition [1] of -2.3%, an inhibition [2] of 8.2% and an inhibition [3] of -1.2%. It also gave an inhibition at 1 µM [4] of -57.8% and an inhibition [5] of -8.9%.
Work on `CCN1CCN(Cc2ccc(NC(=O)c3ccc(C)c(/C=C/c4cnc5[nH]ccc5c4OC)c3)cc2C(F)(F)F)CC1` yielded an inhibition [6] of 3%, an inhibition [7] of 34.6% and an inhibition [8] of 2.7%. It also gave an inhibition [9] of 4%.
With `CCN1CCN(Cc2ccc(NC(=O)c3ccc(C)c(Oc4ccnc5[nH]ccc45)c3)cc2C(F)(F)F)CC1` the inhibition [10] was 92.7%, the inhibition (RAW) was “Dose-Dependent Effect” and the inhibition [11] was “inactive”. The inhibition [12] was 30.1% and the inhibition [13] was 0.9%.
